Assays:
Type in all cases: cell-based, human
[1] = test system: HCT 116 cells transduced with the PDE5A DD derived GFP constructs; assay: Response to Vardenafil, GFP expression by FACS in HCT116; conditions: for MFI / Stabilization ratio with Vardenafil: 48 hours, HCT116
Experimental: (§1) Mutations were created in PDE5A (535-860) catalytic domain using site directed mutagenesis and the mutants were cloned as AcGFP fusion into pELNS vector carrying mCherry marker and packaged in lentiviral vectors. HCT116 cells were transduced with the constructs and stable integrants were selected by cell sorting using mCherry marker. Cells were treated with vehicle (dimethyl sulfoxide, DMSO) or 10 μM Vardenafil (VDF) for 48 hours. Following the treatment, cells were analyzed for GFP expression using FACS. Basal expression was calculated as the ratio of GFP signal in the absence of ligand for a given cell line to auto fluorescence of parental HCT-116 cells. Stabilization ratio was calculated as the ratio of the GFP signal observed in the presence of stabilizing ligand to the signal from the same cell line in the absence of ligand.
HCT 116 cells transduced with the PDE5A DD derived GFP constructs were also tested with increasing doses of Vardenafil. The HCT116 cells were incubated for 48 hours with Vardenafil starting at a dose of 0.002 μM to 30 μM. The GFP intensity of the Vardenafil treated samples was compared to the parental untransduced HCT116 and DMSO treated cells for each construct. The mean fluorescence intensity was calculated for each sample and used to calculate the stabilization ratios as well as the basal expression for each construct. The GFP expression was measured using flow cytometry and the mean fluorescence intensity (MFI) was calculated for each sample. The stabilization ratios are shown in Table 13 and Table 14 and the basal expression is show in Table 15.

[2] = test system: HCT 116 cells transduced with the PDE5A DD derived GFP constructs; assay: Response to Tadalafil, GFP expression by FACS in HCT116; conditions: for MFI / Stabilization ratio with Tadalafil: 48 hours, HCT116
Experimental: as §1, with “PDE5AN (#3) was” for “Mutations were created in PDE5A (535-860) catalytic domain using site directed mutagenesis and the mutants were”, “construct” for “constructs”, “varying doses of Tadalafil (TDF)” for “10 μM Vardenafil (VDF)”, “hrs with doses ranging from 0.01 μM to 100 μM.” for “hours.”
HCT 116 cells transduced with the PDE5A DD derived GFP constructs were also tested with increasing doses of Tadalafil. The HCT116 cells were incubated for 48 hours with Tadalafil starting at dose 0.01 μM to 100 μM. The GFP intensity of the Tadalafil treated samples was compared to the parental untransduced HCT116 and DMSO treated cells for each construct. The mean fluorescence intensity was calculated for each sample and used to calculate the stabilization ratios as well as the basal expression for each construct. The stabilization ratios are shown in Table 19 and Table 20 and the basal expression is show in Table 21.

[3] = test system: HCT116 cells transduced with the constructs; assay: Response to Sildenafil, GFP expression by flow cytometry in HCT116; conditions: for MFI / Stabilization ratio with Sildenafil: 48 hours, HCT116
Experimental: Similar experiments were performed in HCT116 cells using sildenafil. The above-mentioned DDs were cloned as AcGFP fusion into pELNS vector carrying mCherry marker and packaged in lentiviral vectors. HCT116 cells were transduced with the constructs and stable integrants were selected by cell sorting using mCherry marker. Cells were treated with sildenafil at the following μM concentrations: 0.01, 0.02, 0.05, 0.14, 0.41, 1.23, 3.7, 11.11, 33.33, and 100 for a duration of 48 hours. The fluorescence was analyzed by flow cytometry and the mean fluorescence intensity was calculated for all samples. […] The stabilization ratios are shown in Table 24 and Table 25 and the basal expression is show in Table 26.

PDE5AC (#28): AcGFP fused to C-terminal DD 535-860 of PDE5A (Q589R, K591E, N609H, D764V), SEQ ID NO. 25
MFI ([1]; DMSO (no Vardenafil)): 13817
Basal (DMSO/Parental) ([1]; Table 10, GFP signal without ligand / auto fluorescence of parental HCT-116): 10.4
Basal ([1]; Table 15, MFI with DMSO / parental HCT116, Vardenafil experiment): 7.07
Stabilization ratio with Vardenafil ([1]; Vardenafil 0.002 μM vs DMSO): 1.1
MFI ([1]; Vardenafil 0.002 μM): 15437
MFI ([1]; Vardenafil 0.005 μM): 19446
Stabilization ratio with Vardenafil ([1]; Vardenafil 0.014 μM vs DMSO): 2.1
MFI ([1]; Vardenafil 0.014 μM): 29314
Stabilization ratio with Vardenafil ([1]; Vardenafil 0.041 μM vs DMSO): 3.3
MFI ([1]; Vardenafil 0.041 μM): 45804
Stabilization ratio with Vardenafil ([1]; Vardenafil 0.123 μM vs DMSO): 5.4
MFI ([1]; Vardenafil 0.123 μM): 74153
Stabilization ratio with Vardenafil ([1]; Vardenafil 0.370 μM vs DMSO): 5.9
MFI ([1]; Vardenafil 0.370 μM): 81663
Stabilization ratio with Vardenafil ([1]; Vardenafil 1.111 μM vs DMSO): 6.5
MFI ([1]; Vardenafil 1.111 μM): 89426
Stabilization ratio with Vardenafil ([1]; Vardenafil 3.333 μM vs DMSO): 6.7
MFI ([1]; Vardenafil 3.333 μM): 92290
Stabilization ratio with Vardenafil ([1]; Vardenafil 10 μM vs DMSO): 6.3
MFI ([1]; Vardenafil 10 μM): 86985
Stabilization ratio with Vardenafil ([1]; Vardenafil 30 μM vs DMSO): 6.7
MFI ([1]; Vardenafil 30 μM): 93145
MFI ([2]; DMSO (no Tadalafil)): 15004
Basal expression ([2]; Table 21, MFI with DMSO / parental HCT116, Tadalafil experiment): 11.72
Stabilization ratio with Tadalafil ([2]; Tadalafil 0.01 μM vs DMSO): 0.9
MFI ([2]; Tadalafil 0.01 μM): 14073
Stabilization ratio with Tadalafil ([2]; Tadalafil 0.02 μM vs DMSO): 1.0
MFI ([2]; Tadalafil 0.02 μM): 14513
Stabilization ratio with Tadalafil ([2]; Tadalafil 0.05 μM vs DMSO): 1.0
MFI ([2]; Tadalafil 0.05 μM): 15730
Stabilization ratio with Tadalafil ([2]; Tadalafil 0.14 μM vs DMSO): 1.2
MFI ([2]; Tadalafil 0.14 μM): 18316
Stabilization ratio with Tadalafil ([2]; Tadalafil 0.41 μM vs DMSO): 1.9
MFI ([2]; Tadalafil 0.41 μM): 28462
Stabilization ratio with Tadalafil ([2]; Tadalafil 1.23 μM vs DMSO): 3.0
MFI ([2]; Tadalafil 1.23 μM): 44739
Stabilization ratio with Tadalafil ([2]; Tadalafil 3.7 μM vs DMSO): 4.6
MFI ([2]; Tadalafil 3.7 μM): 69430
Stabilization ratio with Tadalafil ([2]; Tadalafil 11.11 μM vs DMSO): 5.7
MFI ([2]; Tadalafil 11.11 μM): 85998
Stabilization ratio with Tadalafil ([2]; Tadalafil 33.33 μM vs DMSO): 6.3
MFI ([2]; Tadalafil 33.33 μM): 95189
Stabilization ratio with Tadalafil ([2]; Tadalafil 100 μM vs DMSO): 6.5
MFI ([2]; Tadalafil 100 μM): 97016
MFI ([3]; DMSO (no Sildenafil)): 13208
Stabilization ratio with Sildenafil ([3]; Sildenafil 0.01 μM vs DMSO): 1.1
MFI ([3]; Sildenafil 0.01 μM): 14613
Stabilization ratio with Sildenafil ([3]; Sildenafil 0.02 μM vs DMSO): 1.2
MFI ([3]; Sildenafil 0.02 μM): 16502
Stabilization ratio with Sildenafil ([3]; Sildenafil 0.05 μM vs DMSO): 1.3
MFI ([3]; Sildenafil 0.05 μM): 17801
Stabilization ratio with Sildenafil ([3]; Sildenafil 0.14 μM vs DMSO): 2.0
MFI ([3]; Sildenafil 0.14 μM): 26694
Stabilization ratio with Sildenafil ([3]; Sildenafil 0.41 μM vs DMSO): 3.3
MFI ([3]; Sildenafil 0.41 μM): 43862
Stabilization ratio with Sildenafil ([3]; Sildenafil 1.23 μM vs DMSO): 5.0
MFI ([3]; Sildenafil 1.23 μM): 65762
Stabilization ratio with Sildenafil ([3]; Sildenafil 3.70 μM vs DMSO): 6.3
MFI ([3]; Sildenafil 3.70 μM): 83657
Stabilization ratio with Sildenafil ([3]; Sildenafil 11.11 μM vs DMSO): 6.1
MFI ([3]; Sildenafil 11.11 μM): 80269
Stabilization ratio with Sildenafil ([3]; Sildenafil 33.33 μM vs DMSO): 6.3
MFI ([3]; Sildenafil 33.33 μM): 83663
Stabilization ratio with Sildenafil ([3]; Sildenafil 100.00 μM vs DMSO): 6.1
Basal expression ([3]; Table 26, MFI with DMSO / parental HCT116, Sildenafil experiment): 10.3
